Common to all, as to assay: NCI tumour cell line growth inhibition, 48 h
The subject of assay [1] is ACHN renal.
The test system of assay [2] is HOP-62 NSCLC.
Assay [3] concerns MOLT-4 leukemia.
The subject of assay [4] is NCI/ADR-RES ovarian.
In assay [5] the test system is OVCAR-3 ovarian.
The test system of assay [6] is OVCAR-5 ovarian.
The test system of assay [7] is RXF 393 renal.
The subject of assay [8] is SF-295 CNS.
Assay [9] has as its system SNB-75 CNS.
The subject of assay [10] is SW-620 colon.

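96-well plates; 48 h exposure; 5 concentrations. Endpoints by linear interpolation between flanking doses. Not reached: highest tested concentration assigned. The concentration for 50% growth inhibition is given as GI50. The concentration for full growth arrest is given as TGI.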

For the compound `O=C(O)c1ccc(NCc2nc3ccccc3[nH]2)cc1`, the GI50 in assay [1], in [2], in assay [3], in assay [4], in assay [5] and in assay [6] was > 100 µM each time. Also, the GI50 in assay [7], in [8], in assay [9] and in [10] was > 100 µM throughout. Moreover, the TGI in assay [1], in assay [2], in assay [3], in [4], in assay [5] and in assay [6] was > 100 µM each time. Moreover, the TGI in assay [7], in assay [8], in assay [9] and in assay [10] was > 100 µM each time.

Turning to `O=C(/C=C/c1ccco1)Nc1ncc(Cc2cccc(C(F)(F)F)c2)s1`, the GI50 in [1] was 0.0647 µM; in [2], 0.0965 µM; in [3] it was 0.084 µM; in assay [4], 0.0422 µM; in assay [5], 0.0386 µM; in assay [6] it was 0.353 µM. In addition, the GI50 is 0.0576 µM in assay [7], 0.0678 µM in assay [8], 0.0301 µM in assay [9] and 0.0422 µM in assay [10]. Also, the TGI worked out at 3.66 µM in [1]; 6.32 µM in [2]; 26 µM in [3]; 1.66 µM in assay [4]; 0.45 µM in assay [5]; 11.8 µM in [6]. For the same compound, the TGI was 0.853 µM in [7], 1.42 µM in assay [8], 1.65 µM in [9] and > 100 µM in [10].

In the case of `CCOC(=O)Nc1ccc2nc(N3CCCCCC3)sc2c1`, the GI50 in assay [1] is 9.6 µM; in assay [2] it was 3.75 µM; in assay [3] it was 3.47 µM; in [4] it was 1.03 µM; in assay [5] it was 1.66 µM; in [6], 8.28 µM. For the same compound, the GI50 is 1.99 µM in assay [7], 0.856 µM in assay [8], 2.07 µM in [9] and 0.567 µM in assay [10]. For the same compound, the TGI in [1] is > 74.1 µM; in assay [2] it was > 100 µM; in [3], > 92.9 µM; in [4], > 36.6 µM; in [5], 10.7 µM; in assay [6], > 100 µM. Further, the TGI in [7] is > 26.2 µM; in assay [8] it was 11.4 µM; in [9], > 31.4 µM; in [10], > 100 µM.

Turning to `Nc1c(C(=O)c2ccc(C#CCN3CCOCC3)cc2)cnn1-c1ccc(F)cc1`, the GI50 in [1], in [2], in assay [3], in [4], in assay [5] and in assay [6] was > 25 µM in each case. Moreover, the GI50 in assay [7], in [8], in assay [9] and in [10] was > 25 µM in each case. Further, the TGI in assay [1], in [2], in assay [3], in [4], in assay [5] and in assay [6] was > 25 µM each time. Besides, the TGI in [7], in assay [8], in assay [9] and in assay [10] was > 25 µM throughout.

As for `O=C(COc1cccc(/C=C2\COc3ccccc3C2=O)c1)c1ccccc1`, the GI50 in [1] is 2.14 µM; in [2], 5.24 µM; in [3], 3.26 µM; in assay [4] it was 3.26 µM; in [5], 2.39 µM; in assay [6], 2.8 µM. In addition, the GI50 in [7] was 2.48 µM; in assay [8], 1.93 µM; in assay [9], 11.5 µM; in assay [10], 1.66 µM. Further, the TGI in [1] is 5.18 µM; in [2] it was 18.2 µM; in [3], 11.1 µM; in assay [4] it was 11.8 µM; in assay [5] it was 5.12 µM; in [6], 7.23 µM. In addition, the TGI in [7] stood at 9.29 µM; in assay [8], 15.8 µM; in assay [9], 24.7 µM; in assay [10] it was 3.83 µM.

Take `Nc1nc(=S)c2ncn(C3OC(CO)C(O)C3O)c2[nH]1` (stereo not drawn): the GI50 was 0.944 µM in [1]; 0.273 µM in [2]; 0.433 µM in assay [3]; 0.4 µM in assay [4]; 0.851 µM in assay [5]; 0.827 µM in [6]. Moreover, the GI50 in assay [7] is 34.7 µM; in assay [8] it was 0.531 µM; in assay [9], 0.688 µM; in [10], 1.7 µM. Moreover, the TGI was 42.6 µM in assay [1]; 3.98 µM in assay [2]; 10.3 µM in assay [3]; > 100 µM in assay [6]; > 100 µM in assay [7]; > 100 µM in [8]. Besides, the TGI in [9] and in [10] was > 100 µM each time.

As for `Cc1ccc(/C=C(/C#N)n2nnc3ncccc32)cc1`, the GI50 in assay [1] is 2.66 µM; in assay [2], 3.17 µM; in [3], 3.41 µM; in assay [4], 1.37 µM; in [5], 0.801 µM; in assay [6], 2.49 µM. The GI50 is 1.54 µM in assay [7], 3.77 µM in [8], 2.98 µM in assay [9] and 1.2 µM in [10]. The TGI in assay [1] was 13.4 µM; in assay [2], 12.9 µM; in [3] it was 19 µM; in assay [4] it was > 100 µM; in assay [5], 3.74 µM; in assay [6], 10.1 µM. For the same compound, the TGI in assay [7] was 6.54 µM; in assay [8], 16.2 µM; in assay [9] it was > 100 µM; in assay [10], 12 µM.

`COC(=O)CC1C2(C)C3=C(C)C(c4ccoc4)CC3OC2C2OC(=O)C3(C)C=CC(=O)C1(C)C23` (stereo not drawn): the TGI in assay [1] worked out at 2.52 µM; in [2], 9.1 µM; in [3], 1.77 µM; in assay [4], 14.1 µM; in assay [5], 7.56 µM; in [6], 5.44 µM. Also, the TGI in [7] turned out to be 3 µM; in assay [8], 13 µM; in assay [9], 12.3 µM; in [10], 4.39 µM.

The values are drawn from PubChem BioAssay (NCI).
